Measurements taken from PubChem BioAssay AID1919007 (Molecular Pharmacology Branch, DTP, NCI, 2023).
Several values for one entry are separate records, joined by “and”; a condition that tells them apart may be missing. Identical values can stand only once.

Test system: A498 complex spheroids with HUVEC/MSC, growth
Experiment: Anticancer human tumor A498 cell line growth inhibition [AhR];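 note: seven day exposure starting three days after spheroid seeding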;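 for viability, T/C: luminescence signal used as a surrogate for viable cells; luminescence viability scaled so 100% equals DMSO vehicle wells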
Conditions: for viability, T/C: stronger effect = lower value
Text: Multicellular complex tumor spheroid response to aryl hydrocarbon receptor antagonists in combination with a variety of drugs and investigational agents in selected tumor cell lines
The current study was undertaken to assess response to aryl hydrocarbon receptor antagonists in combination with standard-of-care drugs and investigational agents in solid tumor complex spheroid models. Complex spheroids include a stromal component modeled by human endothelial cells (HUVEC) and fibroblasts modeled by human mesenchymal stem cells (MSCs). The concentration ranges selected for each drug and investigational agent were based upon clinically achievable concentrations if the clinical Cmax of the agent was known.
Compounds. The drugs and investigational agents: BAY 2416964 (NSC825713), GNF351 (NSC835774), CH-223191 (NSC835775), CPI-455 (NSC825282), aza-TdCyd (NSC777586), decitabine (NSC127716), belinostat (NSC758774), entinostat (NSC756642), pevonedistat (NSC761192), tazemetostat (NSC777109), talazoparib (NSC765396), olaparib (NSC753686), selinexor (NSC780203), nedisertib (M3814, NSC802822), bortezomib (NSC756655), venetoclax (NSC766270), doxorubicin (NSC123127), elimusertib (BAY189344, NSC800525), ceralasertib (AZD6738, NSC777638), TAK-243 (NSC785004), alisertib (NSC759677), etoposide (NSC141540), topotecan (NSC609699), eribulin (NSC707389), gemcitabine (NSC613327), carboplatin (NSC241240), cisplatin (NSC119875), and SN-38 (NSC673596) were obtained from the National Cancer Institute (NCI) Developmental Therapeutics Program Chemical Repository (32). The FDA-approved anticancer drug set is available from the Developmental Therapeutics Program at https://dtp.cancer.gov/organization/dscb/obtaining/available plates.htm. […] The stock solutions were prepared in dimethyl sulfoxide (DMSO, Sigma-Aldrich, St. Louis, MO, cat. D2650), except for the platinum compounds which were prepared in saline (Quality Biological, Gaithersburg, MD, cat. 114-055-101), at 800-fold the tested concentration and stored at -70 degrees C prior to their use. All drugs and investigational agents were tested over a range starting from a high concentration at or near the clinical Cmax and decreasing in half-log increments. If the clinical Cmax for an agent had not been determined, the highest concentration tested was 10 microM (Table 1).
Cell Culture. All cells were maintained in an incubator at 37 degrees C and 5% CO2 with 95% humidity. The PDC lines were cultured according to standard operating procedures established by the NCI PDMR (https://pdmr.cancer.gov). Briefly, all PDCs were thawed and cultured in Matrigel-coated flasks prepared with a working solution of 1X Ham's F-12 nutrient mix, without supplementation (Invitrogen, Waltham, MA, cat. 11765054), 100 U/mL penicillin-streptomycin (Invitrogen, cat. 15140122), and 2.5% Matrigel (Corning Inc., Corning, NY, cat. 354248) for the first three passages. All PDCs were cultured in complete DMEM/F-12 media containing advanced DMEM/F-12 (Invitrogen, cat. 12634028), 4.9% defined fetal bovine serum, heat inactivated (HyClone Laboratories Inc., Logan, UT, cat. SH30070.03HI), 389 ng/mL hydrocortisone (Sigma-Aldrich, cat. H4001), 9.7 ng/mL human EGF recombinant protein (Invitrogen, cat. PHG0313), 23.4 microg/mL adenine (Sigma-Aldrich, cat. A2786), 97.3 U/mL penicillin-streptomycin (Invitrogen, cat. 15140122), 1.9 mM L-glutamine (Invitrogen, cat. 25030081), and 9.7 microM Y-27632 dihydrochloride (Tocris Bioscience, Bristol, United Kingdom, cat. 1254). The PDCs were cultured in complete DMEM/F12 media without 10 microM Y-27632 dihydrochloride for at least two passages prior to the screen. The established cell lines NCI-H1341 and […] were cultured in DMEM/F-12, HEPES (Invitrogen, cat. 11330032), 5% defined fetal bovine serum (HyClone Laboratories Inc., cat. SH30070.03), ITS premix universal culture supplement [insulin (5 microg/mL), transferrin (5 microg/mL), and selenious acid (5 ng/mL)] […]

[1] = curve of first compound, second compound 0.1 µM
[2] = curve of first compound, second compound 0.316 µM
[3] = curve of first compound, second compound 1 µM
[4] = curve of first compound, second compound 3.16 µM
[5] = curve of first compound, second compound 10 µM

## CCc1c2c(nc3ccc(O)cc13)-c1cc3c(c(=O)n1C2)COC(=O)[C@]3(O)CC + Cc1ccccc1N=Nc1ccc(NC(=O)c2ccnn2C)c(C)c1
[1]
  IC50: 57.6 nM
[2]
  IC50: 71.1 nM
[3]
  IC50: 52.1 nM
[4]
  IC50: 44.2 nM
[5]
  IC50: 60.4 nM
Second compound 0.1 µM, first compound 0.000949 µM
  viability, T/C: 89.2%
Second compound 0.1 µM, first compound 0.003 µM
  viability, T/C: 78.2%
Second compound 0.1 µM, first compound 0.00949 µM
  viability, T/C: 72.8%
Second compound 0.1 µM, first compound 0.03 µM
  viability, T/C: 55.9%
Second compound 0.1 µM, first compound 0.0949 µM
  viability, T/C: 44.1%
Second compound 0.1 µM, first compound 0.3 µM
  viability, T/C: 38.8%
Second compound 0.316 µM, first compound 0.000949 µM
  viability, T/C: 84.9%
Second compound 0.316 µM, first compound 0.003 µM
  viability, T/C: 83.5%
Second compound 0.316 µM, first compound 0.00949 µM
  viability, T/C: 80.3%
Second compound 0.316 µM, first compound 0.03 µM
  viability, T/C: 61.6%
Second compound 0.316 µM, first compound 0.0949 µM
  viability, T/C: 45.4%
Second compound 0.316 µM, first compound 0.3 µM
  viability, T/C: 45%
Second compound 1 µM, first compound 0.000949 µM
  viability, T/C: 83.1%
Second compound 1 µM, first compound 0.003 µM
  viability, T/C: 85.9%
Second compound 1 µM, first compound 0.00949 µM
  viability, T/C: 78%
Second compound 1 µM, first compound 0.03 µM
  viability, T/C: 58.2%
Second compound 1 µM, first compound 0.0949 µM
  viability, T/C: 38.8%
Second compound 1 µM, first compound 0.3 µM
  viability, T/C: 43.6%
Second compound 3.16 µM, first compound 0.000949 µM
  viability, T/C: 86.9%
Second compound 3.16 µM, first compound 0.003 µM
  viability, T/C: 78.7%
Second compound 3.16 µM, first compound 0.00949 µM
  viability, T/C: 76.2%
Second compound 3.16 µM, first compound 0.03 µM
  viability, T/C: 54.5%
Second compound 3.16 µM, first compound 0.0949 µM
  viability, T/C: 40%
Second compound 3.16 µM, first compound 0.3 µM
  viability, T/C: 34.8%
Second compound 10 µM, first compound 0.000949 µM
  viability, T/C: 84.3%
Second compound 10 µM, first compound 0.003 µM
  viability, T/C: 79.5%
Second compound 10 µM, first compound 0.00949 µM
  viability, T/C: 77.8%
Second compound 10 µM, first compound 0.03 µM
  viability, T/C: 62.2%
Second compound 10 µM, first compound 0.0949 µM
  viability, T/C: 41.4%
Second compound 10 µM, first compound 0.3 µM
  viability, T/C: 39.4%

## Nc1ccccc1NC(=O)c1ccc(CNC(=O)OCc2cccnc2)cc1
Compound 0.0316 µM
  viability, T/C: 83.7% and 98.2% and 88.8%
Compound 0.1 µM
  viability, T/C: 83.4% and 95.8% and 93.6%
Compound 0.316 µM
  viability, T/C: 88.2% and 84.4% and 77.7%
Compound 1 µM
  viability, T/C: 61.2% and 70.2% and 50.5%
Compound 3.16 µM
  viability, T/C: 21.5% and 29.6% and 23.1%
Compound 10 µM
  viability, T/C: 2.22% and 2% and 2.21%
Curve of compound
  IC50: 1430 nM and 1740 nM and 1090 nM

## CC1COCCN1c1cc(-c2ccnn2C)c2ccnc(-c3ccn[nH]3)c2n1 (stereo unspecified) + Cc1ccccc1N=Nc1ccc(NC(=O)c2ccnn2C)c(C)c1
[1]
  IC50: 21.9 nM
[2]
  IC50: 50.3 nM
[3]
  IC50: 84.9 nM
[4]
  IC50: 97 nM
[5]
  IC50: 84.7 nM
Second compound 0.1 µM, first compound 0.00316 µM
  viability, T/C: 71.7%
Second compound 0.1 µM, first compound 0.01 µM
  viability, T/C: 54.4%
Second compound 0.1 µM, first compound 0.0316 µM
  viability, T/C: 49.7%
Second compound 0.1 µM, first compound 0.1 µM
  viability, T/C: 34.2%
Second compound 0.1 µM, first compound 0.316 µM
  viability, T/C: 25.1%
Second compound 0.1 µM, first compound 1 µM
  viability, T/C: 15.7%
Second compound 0.316 µM, first compound 0.00316 µM
  viability, T/C: 71.2%
Second compound 0.316 µM, first compound 0.01 µM
  viability, T/C: 86.6%
Second compound 0.316 µM, first compound 0.0316 µM
  viability, T/C: 58.8%
Second compound 0.316 µM, first compound 0.1 µM
  viability, T/C: 33.9%
Second compound 0.316 µM, first compound 0.316 µM
  viability, T/C: 17.8%
Second compound 0.316 µM, first compound 1 µM
  viability, T/C: 17.8%
Second compound 1 µM, first compound 0.00316 µM
  viability, T/C: 87.5%
Second compound 1 µM, first compound 0.01 µM
  viability, T/C: 94.8%
Second compound 1 µM, first compound 0.0316 µM
  viability, T/C: 74.7%
Second compound 1 µM, first compound 0.1 µM
  viability, T/C: 47.4%
Second compound 1 µM, first compound 0.316 µM
  viability, T/C: 16.4%
Second compound 1 µM, first compound 1 µM
  viability, T/C: 12.9%
Second compound 3.16 µM, first compound 0.00316 µM
  viability, T/C: 94.7%
Second compound 3.16 µM, first compound 0.01 µM
  viability, T/C: 87.7%
Second compound 3.16 µM, first compound 0.0316 µM
  viability, T/C: 84.3%
Second compound 3.16 µM, first compound 0.1 µM
  viability, T/C: 47.9%
Second compound 3.16 µM, first compound 0.316 µM
  viability, T/C: 20.8%
Second compound 3.16 µM, first compound 1 µM
  viability, T/C: 11.1%
Second compound 10 µM, first compound 0.00316 µM
  viability, T/C: 90.1%
Second compound 10 µM, first compound 0.01 µM
  viability, T/C: 87.1%
Second compound 10 µM, first compound 0.0316 µM
  viability, T/C: 69.9%
Second compound 10 µM, first compound 0.1 µM
  viability, T/C: 47.6%
Second compound 10 µM, first compound 0.316 µM
  viability, T/C: 23.1%
Second compound 10 µM, first compound 1 µM
  viability, T/C: 13.9%

## CCc1c2c(nc3ccc(O)cc13)-c1cc3c(c(=O)n1C2)COC(=O)[C@]3(O)CC
Compound 0.000949 µM
  viability, T/C: 87% and 101% and 90.7%
Compound 0.003 µM
  viability, T/C: 85.5% and 93.3% and 84.1%
Compound 0.00949 µM
  viability, T/C: 65.7% and 84% and 61.2%
Compound 0.03 µM
  viability, T/C: 58.1% and 70.1% and 45.5%
Compound 0.0949 µM
  viability, T/C: 42.9% and 49.1% and 37.1%
Compound 0.3 µM
  viability, T/C: 33.4% and 41.5% and 29.9%
Curve of compound
  IC50: 51.1 nM and 109 nM and 21.9 nM

## CC1(C)CCC(CN2CCN(c3ccc(C(=O)NS(=O)(=O)c4ccc(NCC5CCOCC5)c([N+](=O)[O-])c4)c(Oc4cnc5[nH]ccc5c4)c3)CC2)=C(c2ccc(Cl)cc2)C1
Compound 0.0316 µM
  viability, T/C: 99.2% and 106% and 101%
Compound 0.1 µM
  viability, T/C: 115% and 103% and 98.6%
Compound 0.316 µM
  viability, T/C: 96.3% and 101% and 95.3%
Compound 1 µM
  viability, T/C: 86.8% and 94.5% and 92.4%
Compound 3.16 µM
  viability, T/C: 80.8% and 86% and 84.5%
Compound 10 µM
  viability, T/C: 28.3% and 56.8% and 25.5%
Curve of compound
  IC50: 6010 nM and > 10000 nM and 6170 nM
